According to US20090318399A1, “PHARMACEUTICAL COMPOSITION AND EXTRACT OF PORIA FOR TREATING A DISEASE INDUCED FROM IMMUNE DISORDER” (Sinphar Pharmaceutical Co., Ltd., priority 2008, published 2009):

Tested on: immune cells in BALF of OVA-sensitized mice
Experiment: Percentage of subpopulation of immune cells in BALF
Assay type: in vivo, BALB/c mice
Conditions: Pred group: 0.1 mg Prednisolone per day for 5 days; % of total BALF cells; mean±SD
Excerpt: In this example the mice were induced to become allergic by using ovalbumin (OVA) as an allergen, and the mice were confirmed suffering the induced asthma from the appearance of OVE-specific IgE antibody in the mice. Mice in different groups were fed with a Poria extract or pure lanostane compound during the experimental period, and each mouse was subjected to an airway hyperresponsiveness test after one-month feeding, from which an important index reflecting the severe degree of the asthma of the mouse was determined. In this example different immune cells in bronchoalveolar lavage fluid (BALF) of the mice were also observed as to whether they particularly eosinophils and neutrophils were affected. Further, a chemoattractant factor, Eotaxin, was an important observation factor in this example for observing whether the secretion of cytokines changed dramatically.
(1) Experimental animal: Inbred BALB/c female mice were maintained by standard laboratory chow ad libitum. Room temperature was maintained at 19-24° C. and relative humidity at 50-70%. […]
As all groups of mice had finished of AHR analysis, they were sacrificed on next day. […] The total cell numbers were determined with 0.5 ml CM-10, wherein the density of cells was adjusted to 3×10^5 cells/ml. […] Two hundreds of leukocytes were counted on each slide, which includes four different cells, eosinophil, neutrophil, lymphocyte and monocyte. […]

## C[C@]12C=CC(=O)C=C1CC[C@@H]1[C@@H]2[C@@H](O)C[C@@]2(C)[C@H]1CC[C@]2(O)C(=O)CO [Pred, Prednisolone]
  Monocyte % in BALF: 13.3 ± 7.8%
  Neutrophil % in BALF: 0.8 ± 0.8%
